Measured values as given in PMC7255010, “Small-molecule activating SIRT6 elicits therapeutic effects and synergistically promotes anti-tumor activity of vitamin D3 in colorectal cancer” (Theranostics, 2020).

Legend:
HCT116 = experiment: Cell cycle analysis (PI staining, flow cytometry); assay type: cell-based, human; conditions: for cell cycle phase distribution, G2/M: 48 h (0 µM: 20.4 ± 4.5); for cell cycle phase distribution, S: 48 h (0 µM: 30.1 ± 4.4); for cell cycle phase distribution, G0/G1: 48 h (0 µM: 49.5 ± 3.5)
Procedure: (§1) Then, cells were collected and fixed with 75% ethanol at 4 °C overnight. The cells were incubated with RNase I (50 μg/mL) in 1× PBS at 37 °C for 30 min and stained with propidium iodide (50 μg/mL) for 15 min. The cells were analyzed by flow cytometry and FACS DIVA software, v6.2 (BD Biosciences). The cell cycle distribution was analyzed using FlowJo 7.6.1 software. The data are presented as the mean ± s.d. of three independent experiments.

HT29 = experiment: Cell cycle analysis (PI staining, flow cytometry); assay type: cell-based, human; conditions: for cell cycle phase distribution, G2/M: 48 h (0 µM: 22.6 ± 6.7); for cell cycle phase distribution, S: 48 h (0 µM: 36.9 ± 4.6); for cell cycle phase distribution, G0/G1: 48 h (0 µM: 40.5 ± 2.6)
Procedure: as §1

SW480 = experiment: Cell cycle analysis (PI staining, flow cytometry); assay type: cell-based, human; conditions: for cell cycle phase distribution, G2/M: 48 h (0 µM: 13.9 ± 1.8); for cell cycle phase distribution, S: 48 h (0 µM: 38.3 ± 3.6); for cell cycle phase distribution, G0/G1: 48 h (0 µM: 47.7 ± 1.3)
Procedure: as §1

[1] = test system: CRC cell lines (HCT116, HT29, SW480); experiment: LDH assay of cytotoxicity in CRC cell lines; assay type: cell-based; conditions: 48 h, pharmacological concentrations
Procedure: Cell cytotoxicity was assessed by measuring LDH release from damaged or dead cells using a Cytotoxicity LDH Assay Kit-WST (Dojindo) following the manufacturer's instructions. Briefly, 5 × 10^3 cells per well were plated in 96-well plates. […] The final DMSO concentration in the medium was 0.1%. The amount of LDH leakage from the cells was determined by measuring the absorbance at 490 nm using a microplate reader (Synergy H4 Hybrid Reader, BioTek). The percentage of cytotoxicity was calculated as follows: [(test sample - low control)/ (high control - low control)] × 100, where low control is the absorbance of the culture medium without any added extract, and high control is the absorbance of the culture medium in which the cells were treated with 1% (v/v) Triton X-100 to achieve 100% LDH release. Each data point is presented as the mean ± s.d. of three independent experiments.

[2] = test system: PDX tumors from CRC patients #1 and #2; experiment: CRC PDX models; assay type: in vivo, nude mice; conditions: 30 mg/kg intraperitoneally every other day for 12 days, two PDX models
Procedure: (§2) All animal studies were performed following federal and institutional guidelines approved by the Institutional Animal Care and Use Committee at Shanghai Jiao-Tong University School of Medicine. To establish the CDXs, HCT116 cells (1 × 10^6) suspended in 100 μL of 1× PBS were injected subcutaneously into the flanks of six-week-old male BALB/c nude mice. To establish the PDXs, primary tumors resected from two independent CRC patients (patient #1 and #2) were collected in the culture medium. The necrotic and supporting tissues were carefully removed using sterilized surgical blades. The gross tumor was cut into fragments (2-3 mm in diameter) and inoculated subcutaneously into the flanks of nude mice. The mice were monitored daily, and caliper measurements began when tumors became visible. The tumor volume was monitored every other day via calipers. The tumor volume was calculated using the following formula: (L × W ^2) / 2, where L and W refer to the tumor diameter along the longitudinal and transverse axes, respectively. When the mean tumor volume was approximately 100 to 250 mm^3, the mice were randomly grouped (n = 6 per group for CDXs, n = 8 per group for PDXs), and treatment was initiated. […] After treatment or if meeting the humane endpoint criteria, the mice were sacrificed by CO2 asphyxiation. The tumors were dissected, imaged, and weighed. […]

[3] = Body weights and behaviour of xenograft models; assay type: in vivo; conditions: CDX and PDX mice at the efficacy dosage
Procedure: as §2

[4] = test system: adenomas in small intestines and colons of APC^min/+ mice; experiment: APC^min/+ model of spontaneous CRC; assay type: in vivo, C57BL/6J-APC^min/+ mice; conditions: 20 mg/kg intraperitoneal injection every two days for 12 weeks
Procedure: C57BL/6J-APC^min/+ mice were obtained from Jackson Laboratory. […] The mice were sacrificed in the twentieth week. Tumor numbers were calculated, and tumors were imaged after longitudinal dissection of the small intestine and colon. Then, the small intestines and colons were sectioned and stained for immunohistochemistry.

SIRT6 = SIRT6 (Homo sapiens, UniProt Q8N6T7); experiment: Histone H3 deacetylation in HEK293T cells (western blot); assay type: cell-based; parameters: endogenous in cells; host or cells: HEK293T; conditions: dose-dependent
Procedure: Western blot analysis was performed as described previously. […] After 48 h of treatment, the cells were lysed with 1× SDS and separated by SDS-PAGE, followed by incubation with specific primary antibodies overnight at 4 °C and then with HRP-linked anti-rabbit IgG (#7074, Cell Signaling Technology) or HRP-linked anti-mouse IgG (#7076, Cell Signaling Technology). An Immobilon Western Chemiluminescent HRP Substrate Kit (Merck Millipore) was used for detection. Information regarding the primary antibodies can be found in Table S6. Quantification of western blot data was performed using ImageJ V4.

Chain of SIRT6 (Q8N6T7 whole entry): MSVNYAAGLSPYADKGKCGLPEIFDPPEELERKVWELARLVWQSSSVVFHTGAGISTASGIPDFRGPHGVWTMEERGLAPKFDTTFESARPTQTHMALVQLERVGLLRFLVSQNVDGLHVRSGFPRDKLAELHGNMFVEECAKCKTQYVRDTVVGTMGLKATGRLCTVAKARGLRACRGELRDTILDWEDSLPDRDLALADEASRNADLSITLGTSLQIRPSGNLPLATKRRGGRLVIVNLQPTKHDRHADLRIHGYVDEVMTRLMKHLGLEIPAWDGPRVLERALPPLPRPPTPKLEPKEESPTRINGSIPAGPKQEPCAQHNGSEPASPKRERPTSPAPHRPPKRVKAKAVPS

For Cc1cc(F)c(Br)cc1NS(=O)(=O)c1ccc(NS(=O)(=O)c2cc(Cl)cc(Cl)c2)cc1CN1CCOC[C@H]1C [MDL-811], the “cell cycle phase distribution, G2/M” value (HCT116; HCT116, 5 µM) was 17.9 ± 4.0, the “cell cycle phase distribution, S” value (HCT116; HCT116, 5 µM) was 19.0 ± 2.3 and the “cell cycle phase distribution, G0/G1” value (HCT116; HCT116, 5 µM) was 63.2 ± 2.1. The “cell cycle phase distribution, G2/M” value (HCT116; HCT116, 10 µM) was 14.1 ± 3.8, the “cell cycle phase distribution, S” value (HCT116; HCT116, 10 µM) was 19.0 ± 4.3 and the “cell cycle phase distribution, G0/G1” value (HCT116; HCT116, 10 µM) was 66.9 ± 1.4. For the same compound, the “cell cycle phase distribution, G2/M” value (HT29; HT29, 5 µM) was 20.2 ± 4.2, the “cell cycle phase distribution, S” value (HT29; HT29, 5 µM) was 25.3 ± 4.5 and the “cell cycle phase distribution, G0/G1” value (HT29; HT29, 5 µM) was 54.5 ± 4.1. The “cell cycle phase distribution, G2/M” value (HT29; HT29, 10 µM) was 20.5 ± 3.7, the “cell cycle phase distribution, S” value (HT29; HT29, 10 µM) was 19.6 ± 2.3 and the “cell cycle phase distribution, G0/G1” value (HT29; HT29, 10 µM) was 59.9 ± 2.7. The “cell cycle phase distribution, G2/M” value (SW480; SW480, 5 µM) was 10.8 ± 4.4, the “cell cycle phase distribution, S” value (SW480; SW480, 5 µM) was 26.3 ± 5.1 and the “cell cycle phase distribution, G0/G1” value (SW480; SW480, 5 µM) was 62.9 ± 6.0. The “cell cycle phase distribution, G2/M” value (SW480; SW480, 10 µM) was 11.9 ± 6.4, the “cell cycle phase distribution, S” value (SW480; SW480, 10 µM) was 18.1 ± 4.9 and the “cell cycle phase distribution, G0/G1” value (SW480; SW480, 10 µM) was 70.0 ± 3.8. The “cytotoxicity (LDH release)” value [1] was “minimal cytotoxic effect”, the tumor growth [2] was “strong tumor regression in both PDX models” and the “weight loss and behavioral signs” value [3] was “did not observe any significant weight loss or other abnormal behavioral signs”. The “number and size of adenomas” value [4] was “significantly reduced the number and size of adenomas” and the “deacetylation of H3K9Ac, H3K18Ac, and H3K56Ac” value (SIRT6) was “significantly enhanced the deacetylation of SIRT6 (H3K9Ac, H3K18Ac, and H3K56Ac)”.
